The record followed here is patent publication US10952995B2, “Azaindoles as inhibitors of HPK1” (Genentech, Inc., priority 2017, dated 2021).

Each structure is given as a SMILES string. Where a name gives a salt, the structure may show the parent alone.

HPK1, sequence (Q92918 1-346): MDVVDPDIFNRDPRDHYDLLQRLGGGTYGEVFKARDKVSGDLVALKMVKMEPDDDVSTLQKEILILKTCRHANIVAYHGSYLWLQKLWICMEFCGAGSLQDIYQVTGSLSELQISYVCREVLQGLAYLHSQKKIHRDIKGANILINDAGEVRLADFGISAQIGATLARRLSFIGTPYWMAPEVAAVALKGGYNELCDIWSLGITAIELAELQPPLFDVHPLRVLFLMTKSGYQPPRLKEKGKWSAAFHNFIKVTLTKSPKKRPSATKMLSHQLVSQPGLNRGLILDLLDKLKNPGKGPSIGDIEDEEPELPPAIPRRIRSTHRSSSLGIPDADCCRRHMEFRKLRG

This assay deals with HPK1 (Homo sapiens (Human), UniProt Q92918). Put plainly: HPK Lantha Binding Assay (TR-FRET, Tracer-222 / Eu-Anti-GST Ab). As to conditions: 2 nM HPK1, 2 nM Eu-Anti-GST Ab, 15 nM Tracer222, 60 min incubation; Morrison ki fit. As to the method: Methods for Biological evaluation to assess compound inhibition of HPK-1:
I. Compound Dilution: • 1. Prepare 12.5 uL/well of 5 mM of compounds (100×) to column 2 and column 13 & 10 ul/well DMSO in column 3-12, 14-23 and well A1-H1, I24-P24 of compound plate with Bravo. For reference compound, the top concentration is 1 mM • 2. Add 10 ul 2 mM staurosporine in well J1-P1 and A24-H24 • 3. Perform 11 point 5-fold compound serial dilution with Bravo • a. transfer 2.5 ul compounds from column 2 and column 13 to 10 ul of DMSO in column 3 and column 14 & so on • 4. Centrifuge the compound plate at 2500 rpm for 1 min • 5. Transfer 80 nl compounds into assay plate using Echo. One compound plate makes two assay plates • 6. Seal the assay plate and store in N2 cabinet.
2 nM HPK1, 2 nM Eu-Anti-GST Ab, 15 nM Tracer222, 60 min incubation
III. HPK Lantha Binding Assay: • 1. Add 4 ul 2×HPK1 and Eu-anti-GST antibody into each well of assay plate using Multidrop • 2. Incubate at 23 C incubator for 1 h • 3. Add 4 ul 2× Tracer-222 into each well of assay plate using Multidrop • 4. Incubate at 23 C incubator for 1 h • 5. Read the assay plate in Envision • a. TR_FRET, 340 ex/615 and 665 em • b. 100 usec Delay, 200 usec integration
IV. Analysis: • 1. Compound Ki was analyzed using Morrison ki fit model in XL-fit • a. fit=(1−((((E+x)+(Ki*(1[…](S/Kd))))−(((((E+x)+(Ki*(1+(S/Kd))))^2)−((4*E)*x))^0.5))/(2*E))) • res=(y-fit) • b. Parameters: • E=enzyme concentration • S=Tracer222 concentration, Kd=Tracer222 Kd • All in the same units (uM)
(In general: In TR-FRET formats the signal depends on donor and acceptor labels being close together.)
Regarding `CCc1c(Cl)[nH]c2ncc(-c3cccc(N4CCOCC4=O)c3)cc12` [Compound 1-1, 4-(3-(2-chloro-3-ethyl-1H-pyrrolo[2,3]pyridin-5-yl)phenyl)morpholin-3-one], the Ki came out at 2 nM. In turn, `CCc1c(Cl)[nH]c2ncc(-c3ccc(N)c(C(=O)N(C)C)n3)cc12` [Compound 1-2, 3-amino-6-(2-chloro-3-ethyl-1H-pyrrolo[2,3-b]pyridin-5-yl)-N,N-dimethylpicolinamide] returned a Ki of 3 nM. Take `CCc1c(Cl)[nH]c2ncc(-c3ccc(N)c(C(=O)N(C)C)c3)cc12` [Compound 1-3, 2-amino-5-(2-chloro-3-ethyl-1H-pyrrolo[2,3-b]pyridin-5-yl)-N,N-dimethylbenzamide]: affinity was put at a Ki of 0.9 nM. The result for `CCc1c(C)[nH]c2ncc(-c3ccc(N)c(C(=O)N(C)C)c3)cc12` [Compound 1-4, 2-amino-5-(3-ethyl-2-methyl-1H-pyrrolo[2,3-b]pyridin-5-yl)-N,N-dimethylbenzamide] reads 15 nM; that for `CCc1c(Cl)[nH]c2ncc(-c3cccc(N4CCOCC4=O)n3)cc12` [Compound 1-5, 4-(6-(2-chloro-3-ethyl-1H-pyrrolo[2,3-b]pyridin-5-yl)pyridin-2-yl)morpholin-3-one], 2 nM. The result for `CCc1c(Cl)[nH]c2ncc(-c3ccc(N)c(C(=O)N4CC(O)C4)n3)cc12` [Compound 1-6, (3-amino-6-(2-chloro-3-ethyl-1H-pyrrolo[2,3-b]pyridin-5-yl)pyridin-2-yl)(3-hydroxyazetidin-1-yl)methanone formate] reads 15 nM.

On to `CCc1c(Cl)[nH]c2ncc(-c3ccnc(N4CCOC4=O)n3)cc12` [Compound 1-7, 3-(4-(2-chloro-3-ethyl-1H-pyrrolo[2,3-b]pyridin-5-yl)pyrimidin-2-yl)oxazolidin-2-one formate], for which the Ki was determined as 33 nM.

Molecule `Cc1[nH]c2ncc(-c3cccc(N4CCOCC4=O)n3)cc2c1C(F)(F)F` [Compound 1-8, 4-(6-(2-methyl-3-(trifluoromethyl)-1H-pyrrolo[2,3-b]pyridin-5-yl)pyridin-2-yl)morpholin-3-one] came in with a Ki of 68 nM. Molecule `Cc1[nH]c2ncc(-c3ccc(N)c(C(=O)N(C)C)n3)cc2c1C(F)(F)F` [Compound 1-9, 3-amino-N,N-dimethyl-6-(2-methyl-3-(trifluoromethyl)-1H-pyrrolo[2,3-b]pyridin-5-yl)picolinamide] registered a Ki of 76 nM.

`Cc1[nH]c2ncc(-c3ccc(N)c(C(=O)N(C)C)c3)cc2c1C(F)(F)F` [Compound 1-10, 2-amino-N,N-dimethyl-5-(2-methyl-3-(trifluoromethyl)-1H-pyrrolo[2,3-b]pyridin-5-yl)benzamide] came in with a Ki of 32 nM. The result for `Cc1[nH]c2ncc(-c3ccc(N)c(N4CCOCC4=O)n3)cc2c1C(F)(F)F` [Compound 1-11, 4-(3-amino-6-(2-methyl-3-(trifluoromethyl)-1H-pyrrolo[2,3-b]pyridin-5-yl)pyridin-2-yl)morpholin-3-one] reads 13 nM; that for `Cc1[nH]c2ncc(-c3cc(N)cc(-c4ncccc4CO)c3)cc2c1C(F)(F)F` [Compound 1-12, (2-(3-amino-5-(2-methyl-3-(trifluoromethyl)-1H-pyrrolo[2,3-b]pyridin-5-yl)phenyl)pyridin-3-yl)methanol], 24 nM. The result for `O=C1COCCN1c1cccc(-c2cnc3[nH]c(CO)c(C(F)(F)F)c3c2)c1` [Compound 1-13, 4-(3-(2-(hydroxymethyl)-3-(trifluoromethyl)-1H-pyrrolo[2,3-b]pyridin-5-yl)phenyl)morpholin-3-one] reads 1700 nM. The result for `O=C1COCCN1c1cccc(-c2cnc3[nH]c(Cl)c(CCF)c3c2)c1` [Compound 1-14, 4-(3-(2-chloro-3-(2-fluoroethyl)-1H-pyrrolo[2,3-b]pyridin-5-yl)phenyl) morpholin-3-one] reads 17 nM; that for `Cc1[nH]c2ncc(-c3cccc(N4CCOCC4CO)n3)cc2c1C(F)(F)F` (stereo not drawn) [Compound 1-15, (4-(6-(2-methyl-3-(trifluoromethyl)-1H-pyrrolo[2,3-b]pyridin-5-yl)pyridin-2-yl)morpholin-3-yl)methanol], 75 nM.

Molecule `Cc1[nH]c2ncc(-c3cccc(N4CCCNC4=O)n3)cc2c1C(F)(F)F` [Compound 1-16, 1-(6-(2-methyl-3-(trifluoromethyl)-1H-pyrrolo[2,3-b]pyridin-5-yl)pyridin-2-yl)tetrahydropyrimidin-2(1H)-one] returned a Ki of 82 nM. The figure for `Cc1cc2cc(-c3ccc(N)c(C(=O)N(C)C)c3)cnc2[nH]1` [Compound 1-17, 2-amino-N,N-dimethyl-5-(2-methyl-1H-pyrrolo[2,3-b]pyridin-5-yl)benzamide] is 1300 nM; for `CCc1c(F)[nH]c2ncc(-c3cccc(N4CCOCC4=O)c3)cc12` [Compound 1-18, 4-[3-(3-Ethyl-2-fluoro-1H-pyrrolo[2,3-b]pyridin-5-yl)phenyl]morpholin-3-one] it is 4 nM. `CCc1c(F)[nH]c2ncc(-c3ccc(N)c(C(=O)N(C)C)c3F)cc12` [Compound 1-19, 6-Amino-3-(3-ethyl-2-fluoro-1H-pyrrolo[2,3-b]pyridin-5-yl)-2-fluoro-N,N-dimethylbenzamide] gave a Ki of 1 nM. The figure for `CN(C)C(=O)c1c(N)ccc(-c2cnc3[nH]c(Cl)c(CCO)c3c2)c1F` [Compound 1-20, 6-Amino-3-[2-chloro-3-(2-hydroxyethyl)-1H-pyrrolo[2,3-b]pyridin-5-yl]-2-fluoro-N,N-dimethylbenzamide] is 17 nM. `O=C1COCCN1c1cccc(-c2cnc3[nH]c(Cl)c(CCO)c3c2)c1` [Compound 1-21, 4-{3-[2-Chloro-3-(2-hydroxyethyl)-1H-pyrrolo[2,3-b]pyridin-5-yl]phenyl}morpholin-3-one]: the affinity corresponds to a Ki of 89 nM. As for `CN(C)C(=O)c1cc(-c2cnc3[nH]c(Cl)c(CCO)c3c2Cl)ccc1N` [Compound 1-22, 2-amino-5-(2,4-dichloro-3-(2-hydroxyethyl)-1H-pyrrolo[2,3-b]pyridin-5-yl)-N,N-dimethylbenzamide], the Ki was found to be 9.4 nM. Turning to `COCc1c(Cl)[nH]c2ncc(-c3ccc(N)c(C(=O)N(C)C)c3F)cc12` [Compound 1-23, 6-amino-3-(2-chloro-3-(methoxymethyl)-1H-pyrrolo[2,3-b]pyridin-5-yl)-2-fluoro-N,N-dimethylbenzamide], the affinity, expressed as Ki, was 160 nM. Regarding `CCc1c(Cl)[nH]c2ncc(-c3ccc(C4NCCNC4=O)cc3)cc12` (stereo not drawn) [Compound 1-24, 3-(4-(2-chloro-3-ethyl-1H-pyrrolo[2,3-b]pyridin-5-yl)phenyl)piperazin-2-one], the Ki was found to be 32 nM. In the case of `CCc1c(Cl)[nH]c2ncc(-c3cccc(C4NCCNC4=O)c3)cc12` (stereo not drawn) [Compound 1-25, 3-(3-(2-chloro-3-ethyl-1H-pyrrolo[2,3-b]pyridin-5-yl)phenyl)piperazin-2-one], the affinity corresponds to a Ki of 31 nM. As to `CN(C)C(=O)c1c(N)ccc(-c2cnc3[nH]c(Cl)c(CCO)c3c2Cl)c1F` [Compound 1-26, 6-amino-3-(2,4-dichloro-3-(2-hydroxyethyl)-1H-pyrrolo[2,3-b]pyridin-5-yl)-2-fluoro-N,N-dimethylbenzamide], the affinity, expressed as Ki, was 12 nM. `CCc1c(Cl)[nH]c2ncc(-c3ccc(N)c(C(=O)N(C)C)c3F)cc12` [Compound 1-27, 6-amino-3-(2-chloro-3-ethyl-1H-pyrrolo[2,3-b]pyridin-5-yl)-2-fluoro-N,N-dimethylbenzamide]: the Ki turned out to be 2.7 nM.

For orientation: Ki means a dissociation constant, usually derived from enzyme kinetics or from competition with a known ligand.
